Reference: ChEMBL document CHEMBL1126436, “Taxol Photoaffinity Label: 7-(p-Azidobenzoyl)taxol Synthesis and Biological Evaluation” (1992)

Legend:
B16 = experiment: Compound was evaluated for the concentration which inhibits B16 melanoma cell proliferation by 50%; type: functional; settings: Mus musculus, read-out: ED50 (the source's name)
Tubulin = experiment: Compound was evaluated for the in vitro concentration required to produce 50% stimulation of the microtubule assembly; settings: read-out: ED50 (the source's name)

Question: With `CC(=O)O[C@H]1C(=O)[C@@]2(C)[C@H]([C@H](OC(=O)c3ccccc3)[C@]3(O)C[C@H](OC(=O)[C@H](O)[C@@H](NC(=O)c4ccccc4)c4ccccc4)C(C)=C1C3(C)C)[C@]1(OC(C)=O)CO[C@@H]1C[C@@H]2O` [PACLITAXEL] as the compound, how does the EC50 (B16) read?
Answer: Its EC50 is 31.5 nM.

Question: And the EC50 (Tubulin)?
Answer: Its EC50 is 0.7 µM.

Question: Which results are given for `CC(=O)O[C@H]1C(=O)[C@]2(C)[C@@H](OC(=O)c3ccc(N=[N+]=[N-])cc3)C[C@H]3OC[C@@]3(OC(C)=O)[C@H]2[C@H](OC(=O)c2ccccc2)[C@]2(O)C[C@H](OC(=O)[C@H](O)C(NC(=O)c3ccccc3)c3ccccc3)C(C)=C1C2(C)C` (some centres undefined)?
Answer: EC50 (B16): 957 nM; EC50 (Tubulin): 15 µM
